The subject of one data set is Giardia lamblia. In words: in vitro growth inhibitory activity against Giardia lamblia. It is filed as cell-based. The conditions noted are these: Giardia duodenalis; concentration required to inhibit growth by 50%. The procedure: 35, pp. 2198-2202 (1991). EC50 values for test compounds, expressed in parts per million (ppm), were calculated from dose response curves and are presented in Table 4. As used herein, the terminology "EC50" means the concentration of test compound required to inhibit growth by 50% are compared to a control lacking the test compound. Metronidazole was included as a standard in the tests for comparative purposes.

For the next data set, the system named is Tetrahymena pyriformis. Briefly: in vitro growth inhibitory activity against the ciliate Tetrahymena pyriformis. Format: cell-based, Tetrahymena pyriformis (ATCC strain 30005). The conditions noted are these: read-out: EC50 Tetrahymena pyriformis. The procedure:
Compounds were evaluated for in vitro growth inhibitory activity against the ciliate Tetrahymena pyriformis, which was used as an indicator organism for the Apicomplexia since by several criteria the ciliates and Apicomplexa are closely related (Edlind T. D. et al., Mol. Phylogenet. Evol. vol. 5, pp. 359-367, 1996). T. pyriformis (ATCC strain 30005) was grown in 1 ml ATCC medium 357 at 25° C. in 4 ml polyallomer culture tubes without shaking. Compounds were dissolved in dimethylsufoxide (DMSO) and added to the cultures (containing 3,000 cells/ml) such that the final DMSO concentration was 0.1-0.3%. […] Parasitol. vol. 84, pp. 355-370, 1996) and Cryptosporidium parvum (Arrowood et al., FEMS Microbial. Lett., vol. 136, pp. 245-249, 1996) were tested for comparison.

Another data set concerns Leishmania major. In words: in vitro growth inhibitory activity against L. major promastigotes. It is filed as cell-based. From the text: 35, pp. 2198-2202 (1991).
Data set [1] deals with Toxoplasma gondii. Briefly: growth inhibition of T. gondii in L929 host cells ([3H]-uracil incorporation). It is filed as cell-based. The note with it: Toxoplasma gondii, L929 host cells, read-out: % Inhibition; for inhibition at 0.5 µg/mL: 0.5 μg/ml; for inhibition at 5 µg/mL: 5.0 μg/ml. The procedure:
(§1) Compounds were tested for it vitro growth inhibitory activity against Toxoplasma gondii replication in L929 (L929-ATCC CCL 1, mouse connective tissue) or HFF (human foreskin fibroblast) host cells using the [^3 H]-uracil incorporation technique as follows. Host cells were grown in 96-well flat-bottom microtiter plates at 37° C in a 5% carbon dioxide environment in modified Eagle's medium containing penicillin, streptomycin and 10% fetal equine serum. Wells containing a homogeneous confluent monolayer of host cells were infected with T. gondii tachyzoites at a ratio of 3 parasites per cell (approximately 6×10^4 tachyzoites per well containing 100 μl of medium). […] Two hours post infection, the cultures were washed to remove free parasites and the various dilutions of test compound were added. Cells were subsequently collected at 24, 48 and 72 hours. Four hours prior to each harvesting 50 Al of [^3 H]-uracil (1 μCi) was added. Cells were collected using a cell harvester and incorporated radioactivity was measured using a scintillation counter. […]

A further data set has as its system Cryptosporidium parvum. Briefly: growth inhibitory activity against C. parvum in host MDBKF5D2 cells (immunofluorescence). Format: cell-based. The conditions noted are these: Cryptosporidium parvum, 48 h. On the procedure:
(§2) Compounds were tested for in vitro growth inhibitory activity against C. parvum grown in host MDBKF5D2 cells and for toxicity towards the host cells as follows. […] To test for toxicity towards the host cells, the media containing test compound (200 μl) were introduced into two wells of a 96 well microtiter plate containing confluent MDBKF5D2 cell monolayers and two wells without monolayers, and incubated at 37° C. in an 8% carbon dioxide environment. After 48 hours, the tetrazolium salt MTS (Owen's solution) and phenazine methosulfate were added to each well at concentrations of 333 μg/ml and 25 μM, respectively. The plate was returned to the incubator in the dark to develop for 2 hours, then 100 μl of each supernatant was transferred to a new microtiter plate and read spectrophotometrically in a plate reader at a wavelength of 490 nm. Percent toxicity was calculated by subtracting the mean optical density (OD) of the drug supernatants from the OD of medium control supernatants (no drug), dividing by the OD of the medium control, and multiplying by 100. To test for growth inhibitory activity against C. parvum, 3×10^4 oocysts per well were incubated in mentioned concentrations of each drug at 37° C. (8% CO2) on confluent MDBKF5D2 cell monolayers in 96 well microtiter plates. After 48 hours, the level of infection in each well was determined by means of an immunofluorescence assay. Percent inhibition of growth was calculated by subtracting the mean parasite count in the wells containing test compound from the mean parasite count in the medium control wells (no test compound), dividing by the mean parasite count in the medium control wells, and multiplying by 100. Paromomycin was included in the test as a standard.

A short description of data set [2]: cytotoxicity towards L929 host cells (Cell Titer 96). The note with it: mouse, % Inhibition of host cell growth (values in parenthesis). On the procedure: (§3) Cytotoxicity of the test compounds towards host cells was determined using the Cell Titer 96™ it (Promega Corporation, Madison, Wis.) as follows. Cells were seeded at a concentration of 5×10^3 cells per well containing 100 μl of medium in 96-well flat-bottom microtiter plates and incubated at 37° C. in a 5% carbon dioxide environment for 4 hours. Dilutions of the test compounds prepared as described above were then added, and incubation continued for 24, 48 or 72 hours. Four hours before each of these time points the growth medium containing test compound was replaced with 100 μl of fresh medium followed by addition of 16 μl of the kit dye solution. After incubation at 37° C. for another 4 hours, 100 μl of the kit solubilization/stop solution was added to each well, the contents of the wells were mixed and the plates kept 1 hour at room temperature. The plates were then read spectrophotometrically in a plate reader at a wavelength of 570 nm. […] Atovaquone was included in the test as a standard.

The nature of data set [3]: toxicity towards MDBKF5D2 host cells (MTS). The conditions noted are these: bovine, mdbkf5d2 cells, Cytotoxicity (percent toxicity). On the procedure: as §2
Data set [4] is described as follows: cytotoxicity towards HFF host cells (Cell Titer 96). The note with it: human, % Inhibition of host cell growth (values in parenthesis). On the procedure:
as §3

For data set [5], the system named is Toxoplasma gondii. In words: growth inhibition of T. gondii in HFF host cells ([3H]-uracil incorporation). Format: cell-based. The conditions noted are these: Toxoplasma gondii; for inhibition at 0.5 µg/mL: 0.5 μg/ml. The procedure: as §1
[6] abbreviates: 24 h, HFF host cells, 24 hours, read-out: % Inhibition.
Where [7] appears, read: 24 h, HFF host cells, 5.0 μg/ml, 24 hours, read-out: % Inhibition.
[8] abbreviates: 48 h, HFF host cells, 48 hours, read-out: % Inhibition.
Where [9] appears, read: 72 h, HFF host cells, 72 hours, read-out: % Inhibition.
Where [10] appears, read: 72 h, HFF host cells, 5.0 μg/ml, 72 hours, read-out: % Inhibition.

Molecules are shown by their SMILES. ≈ marks a conversion by molar mass, not a printed value. Like-named read-outs stand apart in the source and are kept apart here.

The EC50 is the midpoint of the concentration-response curve. With `CCC(C)(NC(=O)c1cc(Cl)cc(Cl)c1)C(=O)C(Br)Br` (stereo not shown) [Compound 4], the EC50 with Giardia lamblia was found to be 0.3 µg/mL (≈ 0.673 µM); with Tetrahymena pyriformis (24 hours, 25° C.), 0.1 µg/mL (≈ 0.224 µM); in the data set on Leishmania major it was 0.2 µg/mL (≈ 0.448 µM).

For the compound `CCC(C)(NC(=O)c1cc(Cl)c(N)c(C=NOC)c1)C(=O)CCl` (stereo not shown) [Compound 6, 4-amino-3-chloro-5-methoxyiminomethyl-N-(3-chloro-1-ethyl-1-methyl-2-oxopropyl)benzamide], the EC50 came out at 0.009 µg/mL (≈ 0.025 µM) in the data set on Giardia lamblia; 0.02 µg/mL (≈ 0.0555 µM) in the data set with Tetrahymena pyriformis (24 hours, 25° C.); 0.6 µg/mL (≈ 1.67 µM) in the data set on Leishmania major.

Turning to `CCC(C)(NC(=O)c1cc(Cl)cc(Cl)c1)C(=O)CSC#N` (stereo not shown) [Compound 7], the EC50 was determined as 0.05 µg/mL (≈ 0.145 µM) in the data set with Giardia lamblia; 0.07 µg/mL (≈ 0.203 µM) in the data set with Tetrahymena pyriformis (24 hours, 25° C.); 0.6 µg/mL (≈ 1.74 µM) in the data set with Leishmania major.

As to `CCC(C)(NC(=O)c1cc(Cl)cc(Cl)c1)C(=O)CN=C=S` (stereo not shown) [Compound 8], the EC50 was 0.2 µg/mL (≈ 0.579 µM) in the data set with Giardia lamblia, 0.07 µg/mL (≈ 0.203 µM) in the data set with Tetrahymena pyriformis (24 h) and 0.7 µg/mL (≈ 2.03 µM) with Leishmania major.

The inhibition is how much of the control response was suppressed. On to `CCC(C)(NC(=O)c1cc(F)cc(F)c1)C(=O)CCl` (stereo not shown) [Compound 12], for which the inhibition at 0.5 µg/mL in the data set with Toxoplasma gondii [1] (L929, 24 h, 24 hours) is 42%; in the data set on Toxoplasma gondii [1] (L929, 48 h, 48 hours), 77.6%; in the data set with Toxoplasma gondii [1] (L929, 72 h, 72 hours) it was 59%; in the data set with Toxoplasma gondii [5] (setting [6]) it was 53.4%; in the data set with Toxoplasma gondii [5] (setting [8]), 95.3%; in the data set with Toxoplasma gondii [5] (setting [9]), 91.6%. Besides, the inhibition at 5 µg/mL with Toxoplasma gondii [1] (L929, 24 h, 24 hours) is 2.8%; in the data set with Toxoplasma gondii [1] (L929, 48 h, 48 hours), 55%; in the data set with Toxoplasma gondii [1] (L929, 72 h, 72 hours), 86.2%; with Toxoplasma gondii [5] (setting [7]), 84.4%; in the data set on Toxoplasma gondii [5] (48 h) it was 97.3%; with Toxoplasma gondii [5] (setting [10]), 99.8%. In the data set with Cryptosporidium parvum, this compound gave an inhibition at 0.1 µM of 9.4%. This compound came in with an inhibition at 1 µM in the data set with Cryptosporidium parvum of 7.2%. In addition, testing at 10 µM in the data set with Cryptosporidium parvum gave an inhibition of 21.3%. The inhibition at 100 µM with Cryptosporidium parvum is 88.9%. Further, the inhibition at 24 h stood at 8% in data set [2] (L929, 0.5 μg/ml); 18.9% in data set [2] (L929, 5.0 μg/ml); 4.6% in data set [4] (0.5 μg/ml); 7.7% in data set [4] (5.0 μg/ml). Also, the inhibition at 48 h in data set [2] (L929, 0.5 μg/ml) was 0%; in data set [2] (L929, 5.0 μg/ml), 66.8%; in [4] (0.5 μg/ml), 5.4%; in [4] (5.0 μg/ml), 29.1%. Further, the inhibition at 72 h in data set [2] (L929, 0.5 μg/ml) was determined as 0%; in [2] (L929, 5.0 μg/ml), 88%; in data set [4] (0.5 μg/ml), 0%; in data set [4] (5.0 μg/ml) it was 41.3%. In data set [3], this compound had a cytotoxicity at 48 h, 0.1 µM of 11.2%. For the same compound, the cytotoxicity at 48 h, 1 µM in data set [3] came to 2.5%. Further, the cytotoxicity at 48 h, 10 µM in [3] came to 9.9%. The same compound came in with a cytotoxicity at 48 h, 100 µM in data set [3] of 9.9%.

`CCC(C)(NC(=O)c1cc(Br)c(N)c(Br)c1)C(=O)CCl` (stereo not shown) [Compound 14]: the inhibition at 0.5 µg/mL with Toxoplasma gondii [1] (L929, 24 h, 24 hours) came out at 29.3%; in the data set with Toxoplasma gondii [1] (L929, 48 h, 48 hours) it was 79.8%; with Toxoplasma gondii [1] (L929, 72 h, 72 hours), 84.9%; with Toxoplasma gondii [5] (setting [6]), 63.9%; in the data set on Toxoplasma gondii [5] (setting [8]), 96.1%; with Toxoplasma gondii [5] (setting [9]), 77.8%. Moreover, the inhibition at 5 µg/mL in the data set on Toxoplasma gondii [1] (L929, 24 h, 24 hours) came out at 6.9%; with Toxoplasma gondii [1] (L929, 48 h, 48 hours), 61.2%; in the data set with Toxoplasma gondii [1] (L929, 72 h, 72 hours), 79.7%; with Toxoplasma gondii [5] (setting [7]) it was 87.4%; in the data set on Toxoplasma gondii [5] (48 h, HFF host cells, 5.0 μg/ml, 48 hours, read-out: % Inhibition), 99.7%; with Toxoplasma gondii [5] (setting [10]) it was 99.1%. Moreover, at 0.1 µM the inhibition with Cryptosporidium parvum was 2.1%. In the data set on Cryptosporidium parvum, testing at 1 µM gave an inhibition of 11.3%. In the data set on Cryptosporidium parvum, this compound yielded an inhibition at 10 µM of 35.4%. This compound also displayed an inhibition at 100 µM in the data set on Cryptosporidium parvum of 86.7%. Also, the inhibition at 24 h was 8.9% in data set [2] (L929, 0.5 μg/ml); 21.8% in data set [2] (L929, 5.0 μg/ml); 4.1% in data set [4] (0.5 μg/ml); 5.8% in data set [4] (5.0 μg/ml). The inhibition at 48 h turned out to be 0% in data set [2] (L929, 0.5 μg/ml); 58.7% in data set [2] (L929, 5.0 μg/ml); 3.7% in [4] (0.5 μg/ml); 31.8% in data set [4] (5.0 μg/ml). The inhibition at 72 h was determined as 0% in data set [2] (L929, 0.5 μg/ml); 77.6% in [2] (L929, 5.0 μg/ml); 0% in data set [4] (0.5 μg/ml); 53.6% in [4] (5.0 μg/ml). Also, the cytotoxicity at 48 h, 0.1 µM in data set [3] was determined as 21%. Further, the cytotoxicity at 48 h, 1 µM in [3] worked out at 6.1%. Moreover, the cytotoxicity at 48 h, 10 µM in data set [3] stood at 3.9%. The same compound came in with a cytotoxicity at 48 h, 100 µM in data set [3] of 22.3%.

As for `CCC(C)(NC(=O)c1cc(Cl)c2ncoc2c1)C(=O)CCl` (stereo not shown) [Compound 16], the EC50 came out at 2 µg/mL (≈ 6.08 µM) in the data set on Giardia lamblia; 0.6 µg/mL (≈ 1.82 µM) with Tetrahymena pyriformis (24 hours, 25° C.); 7 µg/mL (≈ 21.3 µM) with Leishmania major.

For the origin of these results see US6107316A, “Method for treating protozoal infections” (priority 1998, dated 2000).
